Legend:
[1] = system: RAW264.7 macrophage cells; assay: Macrophage chemotaxis assay with 3T3-L1 adipocyte conditioned medium; assay type: cell-based; settings: p<0.05
Protocol: The macrophage chemotaxis assay was conducted with differentiated 3T3-L1 adipocytes (day +11 post differentiation) incubated for 24 hours with compounds (10 ng/mL TNFα with or without 100 nM 17α-ethynylandrost-5-ene-3β,7β,17β-triol) or vehicle in DMEM with 0.2% FFA- and endotoxin-free BSA. Conditioned medium (CM) was collected and kept frozen in single-use aliquots. For the chemotaxis assay, 600 μl/well of adipocyte CM was aliquoted into 24-well tissue culture plates. 2×10^5 RAW264.7 macrophage cells resuspended in DMEM containing 0.2% BSA were plated in the upper transwell chamber ([…], 24-transwell format; Corning, Lowell, Mass.). After 3 hours of migration, the RAW264.7 cells were fixed in formalin and stained with DAPI. Cells in the upper chamber that had not migrated were removed. Cells found on the filter facing the lower chamber were counted as cells having performed chemotaxis and quantified with the Simple PCI imaging software (Compix Inc., Cranberry Township, Pa.).

[2] = system: patients having type 2 diabetes; assay: Phase II double-blinded placebo controlled 12-week trial in type 2 diabetes patients on metformin; assay type: in vivo, human; settings: for Fasting C-peptide Change from baseline / Fasting Glucose Change from baseline / HbA1c Change from baseline / LDL Cholesterol change from baseline / Total Cholesterol change from baseline / Weight change from baseline / HOMA2% insulin sensitivity change from baseline / HOMA2% β cell function change from baseline / HOMA2 Insulin resistance change from baseline: 5 mg twice per day + metformin; for HOMA2% insulin sensitivity change from baseline / HOMA2% β cell function change from baseline / HOMA2 Insulin resistance change from baseline: calculated using C-peptide
Protocol: Patients having type 2 diabetes were evaluated for their baseline BMI and levels of MCP1, insulin and C peptide. The effect of treatment with 17α-ethynylandrost-5-ene-3β,7β,17β-triol (5 mg administered orally twice per day for 84 days) on total cholesterol, LDL cholesterol, hemoglobin A1c (HbA1c) plus metformin (500-2250 mg/day, which was administered in one or two doses per day for 84 days), weight, and other biological responses is shown in the tables below. The effect of treatment in all treated patients was compared with the effect of the same treatment in the responder population, characterized as having a BMI>27.99 (overweight or obese), insulin resistant (C-peptide >1.99 ng/mL or essentially normal insulin >3.99 μU/mL to about 29 μU/mL with hyperglycemia), and having an elevated serum MCP1>399.99 pg/mL, indicating a state of systemic inflammation. The responder patients were a subset of all patients were treated.
The Phase II, double-blinded placebo controlled 12-week dosing trial of example 4 enrolled 96 subjects with a hemoglobin A1c (HbA1c) level in excess of 7.5 percent and were being treated with a stable metformin dose as described above. The primary objectives of this trial were to evaluate the safety and tolerance of 17α-ethynylandrost-5-ene-3β,7β,17β-triol, 10 mg per day (5 mg twice daily), compared to placebo from baseline to week 12 and to evaluate the change in HbA1c from baseline to week 12 in the 17α-ethynylandrost-5-ene-3β,7β,17β-triol treated group when compared to the placebo group.
A retrospective analysis of data was performed on the subpopulation of patients that represented an obese, insulin-resistant, diabetic population. This analysis included patients who met the following criteria at baseline: BMI greater than or equal to 28; fasting plasma insulin levels greater than or equal to 4 μU/mL; fasting plasma C-peptide levels greater than or equal to 2 ng/mL; and serum monocyte chemoattractant protein-1 (MCP1) levels greater than or equal to 400 pg/mL. This phenotype represented 35% of all 89 patients with values reported for these parameters at baseline. Twenty-two individuals with this phenotype completed the 84 days of dosing. […] These changes in secondary indicators of activity were consistent with the observed decreases in HbA1c and glucose in this diabetic subpopulation.

[3] = TNFα-treated adipocyte CM, adipocytes pretreated
[4] = retrospective subpopulation, 84 days, compared to placebo, non-significant

With `C#C[C@]1(O)CC[C@H]2[C@@H]3[C@@H](O)C=C4C[C@@H](O)CC[C@]4(C)[C@H]3CC[C@@]21C` [17α-ethynylandrost-5-ene-3β,7β,17β-triol] the “macrophage secretion of CCL5/RANTES” value [1, 3] was “significantly decreased”, the “macrophage secretion of MCP-1/CCL2” value [1, 3] was “significantly decreased” and the “reduction of macrophage migration stimulated by CM from TNFα-treated adipocytes” value ([1]; adipocytes pretreated with 100 nM) was roughly 30%. The “Fasting C-peptide Change from baseline” value ([2]; All patients, day 29) was -0.2 ng/mL, the “Fasting Glucose Change from baseline” value ([2]; All patients, day 29) was -7.5 mg/dL and the “HbA1c Change from baseline” value ([2]; All patients, day 29) was 0 % Hb. For the same compound, the “LDL Cholesterol change from baseline” value ([2]; All patients, day 29) was 0.5 mg/dL, the “Total Cholesterol change from baseline” value ([2]; All patients, day 29) was -0.5 mg/dL and the “Weight change from baseline” value ([2]; All patients, day 29) was -0.4136 kg. For the same compound, the “Fasting C-peptide Change from baseline” value ([2]; All patients, day 57) was -0.2 ng/mL, the “Fasting Glucose Change from baseline” value ([2]; All patients, day 57) was 0 mg/dL and the “HbA1c Change from baseline” value ([2]; All patients, day 57) was 0.1 % Hb. The “LDL Cholesterol change from baseline” value ([2]; All patients, day 57) was -2 mg/dL, the “Total Cholesterol change from baseline” value ([2]; All patients, day 57) was -5.5 mg/dL and the “Weight change from baseline” value ([2]; All patients, day 57) was -0.4546 kg. For the same compound, the “Fasting C-peptide Change from baseline” value ([2]; All patients, day 84) was -0.05 ng/mL, the “Fasting Glucose Change from baseline” value ([2]; All patients, day 84) was -4.25 mg/dL and the “HbA1c Change from baseline” value ([2]; All patients, day 84) was 0.15 % Hb. The “LDL Cholesterol change from baseline” value ([2]; All patients, day 84) was 4.5 mg/dL, the “Total Cholesterol change from baseline” value ([2]; All patients, day 84) was 3 mg/dL and the “Weight change from baseline” value ([2]; All patients, day 84) was -0.03864 kg. The “HOMA2% insulin sensitivity change from baseline” value ([2]; All patients, day 29) was 4.2 % S, the “HOMA2% β cell function change from baseline” value (“HOMA2% β cell function change” below) ([2]; All patients, day 29) was 0.8 % b and the “HOMA2 Insulin resistance change from baseline” value (“HOMA2 Insulin resistance change” below) ([2]; All patients, day 29) was −0.1453 IR. For the same compound, the “HOMA2% insulin sensitivity change from baseline” value ([2]; All patients, day 57) was 1.75 % S, the “HOMA2% β cell function change” value ([2]; All patients, day 57) was −2.15 % b and the “HOMA2 Insulin resistance change” value ([2]; All patients, day 57) was −0.0518 IR. The “HOMA2% insulin sensitivity change from baseline” value ([2]; All patients, day 84) was −1.45 % S, the “HOMA2% β cell function change” value ([2]; All patients, day 84) was 5.6 % b and the “HOMA2 Insulin resistance change” value ([2]; All patients, day 84) was 0.02309 IR. The “HbA1c Change from baseline” value ([2]; Responder patients (BMI>27.99, insulin resistant, MCP1>399.99 pg/mL), day 29) was −0.15 % Hb, the “Fasting C-peptide Change from baseline” value ([2]; Responder patients, day 29) was -0.2 ng/mL and the “Fasting Glucose Change from baseline” value ([2]; Responder patients, day 29) was -17.5 mg/dL. For the same compound, the “LDL Cholesterol change from baseline” value ([2]; Responder patients, day 29) was -8.5 mg/dL, the “Total Cholesterol change from baseline” value ([2]; Responder patients, day 29) was -0.5 mg/dL and the “Weight change from baseline” value ([2]; Responder patients, day 29) was -0.3727 kg. For the same compound, the “Fasting C-peptide Change from baseline” value ([2]; Responder patients, day 57) was 0 ng/mL, the “Fasting Glucose Change from baseline” value ([2]; Responder patients, day 57) was -7 mg/dL and the “HbA1c Change from baseline” value ([2]; Responder patients, day 57) was −0.1 % Hb. For the same compound, the “LDL Cholesterol change from baseline” value ([2]; Responder patients, day 57) was -11.5 mg/dL, the “Total Cholesterol change from baseline” value ([2]; Responder patients, day 57) was -18.5 mg/dL and the “Weight change from baseline” value ([2]; Responder patients, day 57) was -0.925 kg. The “Fasting C-peptide Change from baseline” value ([2]; Responder patients, day 84) was 0.25 ng/mL, the “Fasting Glucose Change from baseline” value ([2]; Responder patients, day 84) was -13 mg/dL and the “HbA1c Change from baseline” value ([2]; Responder patients, day 84) was −0.425 % Hb. The “LDL Cholesterol change from baseline” value ([2]; Responder patients, day 84) was -7.5 mg/dL, the “Total Cholesterol change from baseline” value ([2]; Responder patients, day 84) was -14.5 mg/dL and the “Weight change from baseline” value ([2]; Responder patients, day 84) was -1.33 kg. For the same compound, the “HOMA2% insulin sensitivity change from baseline” value ([2]; Responder patients, day 29) was 3.9 % S, the “HOMA2% β cell function change” value ([2]; Responder patients, day 29) was 2.1 % b and the “HOMA2 Insulin resistance change” value ([2]; Responder patients, day 29) was −0.3061 IR. For the same compound, the “HOMA2% insulin sensitivity change from baseline” value ([2]; Responder patients, day 57) was 1 % S, the “HOMA2% β cell function change” value ([2]; Responder patients, day 57) was 5.3 % b and the “HOMA2 Insulin resistance change” value ([2]; Responder patients, day 57) was −0.04016 IR. For the same compound, the “HOMA2% insulin sensitivity change from baseline” value ([2]; Responder patients, day 84) was −4.4 % S, the “HOMA2% β cell function change” value ([2]; Responder patients, day 84) was 16.3 % b and the “HOMA2 Insulin resistance change” value ([2]; Responder patients, day 84) was 0.2265 IR. The “HbA1c, treatment vs placebo” value ([2]; entire 72 patient population that completed dosing on day 84) was “no statistical difference”, the “decrease in HbA1c” value ([2]; retrospective subpopulation (BMI>=28, insulin>=4 μU/mL, C-peptide>=2 ng/mL, MCP1>=400 pg/mL), 84 days, compared to placebo, p=0.06) was −0.53% and the “decrease in HOMA2 insulin resistance” value [2, 4] was −0.65 IR. The “decrease in fasting plasma C-peptide” value [2, 4] was -0.43 ng/mL, the “decrease in fasting plasma insulin” value [2, 4] was −0.48 μU/mL and the decrease in fructosamine [2, 4] was -25.75 µmol/L. The “increase in HOMA2 beta cell function” value [2, 4] was 17.95 % B, the “increase in HOMA2 insulin sensitivity” value [2, 4] was 11.3 % S and the “decrease in fasting plasma glucose” value ([2]; retrospective subpopulation, 84 days, compared to placebo, p=0.09) was -28.75 mg/dL. The “sensitivity analysis using last observation carried forward” value ([2]; subpopulation individuals who completed at least 29 days of dosing) was “showed improvement”.

From US20100227841A1, “Patient populations and treatment methods” (Harbor BioSciencs, Inc., priority 2008, published 2010)
